pIC50: −log10 of the molar value.
Experiments:
[1] = target: IL-17A(FLAG-Tagged): IL-17RA(His-Tagged) (Homo sapiens, UniProt Q16552, K93Q); assay: IL-17A(FLAG-Tagged): IL-17RA(His-Tagged) Binding Disruption Eu-HTRF Assay; conditions: IL-17A/IL-17RA binding disruption, simple average if tested more than once
In short: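 IC50 comes from a one-site competition fit of the HTRF 665/620 nm ratio. Compound dilutions (2-fold, 22 points) were held 1 h rt with FLAG-tagged IL-17A dimer, then His-tagged IL-17RA plus Eu-cryptate anti-FLAG and D2 anti-His antibodies were added for 2 h rt.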

[2] = system: IL-17A-induced G-CSF production in human normal keratinocyte (NHK); assay: NHK Assay: IL-17A-induced G-CSF production in human normal keratinocytes; format: cell-based; conditions: Homo sapiens, Keratinocyte, 24 h, adult normal human keratinocytes, IL-17A 5 ng/mL, simple average if tested more than once
In short: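 G-CSF released by primary adult human keratinocytes after 24 h at 37° C was quantified by HTRF via standard curve to give IC50. Stimulus was 5 ng/mL IL-17A pre-mixed 1 h at rt with compound dilutions, in 5% FBS and 0.2% DMSO. Cell viability was assessed in parallel with CellTiter-Glo.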

UniProt Q16552, sequence (Q16552 with tags, fused parts or gaps K93Q): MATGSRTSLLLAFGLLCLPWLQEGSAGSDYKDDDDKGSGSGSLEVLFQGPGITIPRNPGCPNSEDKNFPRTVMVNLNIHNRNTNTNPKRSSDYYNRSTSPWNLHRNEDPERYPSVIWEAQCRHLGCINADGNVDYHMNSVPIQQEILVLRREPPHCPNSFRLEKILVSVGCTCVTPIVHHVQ

Row | Structure (SMILES) | pIC50 [1] | pIC50 [2]
1 | O=C(CCC(F)(F)F)N[C@@H](c1cnn2cc([C@@H](NC(=O)c3ccccn3)C3CCC(F)(F)CC3)nc2c1)C1CC1 [Example 456, N—((S)-(7-((R)-Cyclopropyl(4,4,4-trifluorobutanamido)methyl)imidazo[1,2-b]pyridazin-2-yl)(4,4-difluorocyclohexyl)methyl)picolinamide] | 6.11 | < 4.70
2 | O=C(CCC(F)(F)F)N[C@@H](c1cnn2cc([C@@H](NC(=O)c3ccnnc3)C3CCC(F)(F)CC3)nc2c1)C1CC1 [Example 457, N—((S)-(7-((R)-Cyclopropyl(4,4,4-trifluorobutanamido)methyl)imidazo[1,2-b]pyridazin-2-yl)(4,4-difluorocyclohexyl)methyl)pyridazine-4-carboxamide] | 5.92 | 5.54
3 | O=C(CCC(F)(F)F)N[C@@H](c1cnn2cc([C@@H](NC(=O)c3cccnn3)C3CCC(F)(F)CC3)nc2c1)C1CC1 [Example 458, N—((S)-(7-((R)-Cyclopropyl(4,4,4-trifluorobutanamido)methyl)imidazo[1,2-b]pyridazin-2-yl)(4,4-difluorocyclohexyl)methyl)pyridazine-3-carboxamide] | 5.11 | < 4.70
4 | COc1cc(C(=O)N[C@H](c2cn3ncc([C@H](NC(=O)CCC(F)(F)F)C4CC4)cc3n2)C2CCC(F)(F)CC2)cnn1 [Example 459, N—((S)-(7-((R)-Cyclopropyl(4,4,4-trifluorobutanamido)methyl)imidazo[1,2-b]pyridazin-2-yl)(4,4-difluorocyclohexyl)methyl)-6-methoxypyridazine-4-carboxamide] | 5.89 | < 4.70
5 | O=C(CCC(F)(F)F)N[C@@H](c1cnn2cc([C@@H](NC(=O)c3cc(C4CC4)ccn3)C3CCC(F)(F)CC3)nc2c1)C1CC1 [Example 460, 4-Cyclopropyl-N—((S)-(7-((R)-cyclopropyl(4,4,4-trifluorobutanamido)methyl)imidazo[1,2-b]pyridazin-2-yl)(4,4-difluorocyclohexyl)methyl)picolinamide] | 6.96 | 5.96
6 | N#Cc1ccnc(C(=O)N[C@H](c2cn3ncc([C@H](NC(=O)CCC(F)(F)F)C4CC4)cc3n2)C2CCC(F)(F)CC2)c1 [Example 461, 4-Cyano-N—((S)-(7-((R)-cyclopropyl(4,4,4-trifluorobutanamido)methyl)imidazo[1,2-b]pyridazin-2-yl)(4,4-difluorocyclohexyl)methyl)picolinamide] | 5.80 | < 4.70
7 | COCc1cncc(C(=O)N[C@H](c2cn3ncc([C@H](NC(=O)CCC(F)(F)F)C4CC4)cc3n2)C2CCC(F)(F)CC2)c1 [Example 462, N—((S)-(7-((R)-Cyclopropyl(4,4,4-trifluorobutanamido)methyl)imidazo[1,2-b]pyridazin-2-yl)(4,4-difluorocyclohexyl)methyl)-5-(methoxymethyl)nicotinamide] | 6.85 | 5.96
8 | CC(C)c1ccsc1C(=O)N[C@H](c1cn2ncc([C@H](NC(=O)CCC(F)(F)F)C3CC3)cc2n1)C1CCC(F)(F)CC1 [Example 463, N—((S)-(7-((R)-Cyclopropyl(4,4,4-trifluorobutanamido)methyl)imidazo[1,2-b]pyridazin-2-yl)(4,4-difluorocyclohexyl)methyl)-3-isopropylthiophene-2-carboxamide] | 7.03 | 6.42
9 | COc1cc(C(=O)N[C@H](c2cn3ncc([C@H](NC(=O)CCC(F)(F)F)C4CC4)cc3n2)C2CCC(F)(F)CC2)ncn1 [Example 465, N—((S)-(7-((R)-Cyclopropyl(4,4,4-trifluorobutanamido)methyl)imidazo[1,2-b]pyridazin-2-yl)(4,4-difluorocyclohexyl)methyl)-6-methoxypyrimidine-4-carboxamide] | 6.04 | 5.80
10 | Cn1nnnc1C(=O)N[C@H](c1cn2ncc([C@H](NC(=O)CCC(F)(F)F)C3CC3)cc2n1)C1CCC(F)(F)CC1 [Example 468, N—((S)-(7-((R)-Cyclopropyl(4,4,4-trifluorobutanamido)methyl)imidazo[1,2-b]pyridazin-2-yl)(4,4-difluorocyclohexyl)methyl)-1-methyl-1H-tetrazole-5-carboxamide] | 6.12 | 5.77
11 | Cn1ccnc1C(=O)N[C@H](c1cn2ncc([C@H](NC(=O)CCC(F)(F)F)C3CC3)cc2n1)C1CCC(F)(F)CC1 [Example 469, N—((S)-(7-((R)-Cyclopropyl(4,4,4-trifluorobutanamido)methyl)imidazo[1,2-b]pyridazin-2-yl)(4,4-difluorocyclohexyl)methyl)-1-methyl-1H-imidazole-2-carboxamide] | 5.92 | < 4.70
12 | CCc1cnoc1C(=O)N[C@H](c1cn2ncc([C@H](NC(=O)CCC(F)(F)F)C3CC3)cc2n1)C1CCC(F)(F)CC1 [Example 470, N—((S)-(7-((R)-Cyclopropyl(4,4,4-trifluorobutanamido)methyl)imidazo[1,2-b]pyridazin-2-yl)(4,4-difluorocyclohexyl)methyl)-4-ethylisoxazole-5-carboxamide] | 7.27 | 6.96
13 | Cc1ncoc1C(=O)N[C@H](c1cn2ncc([C@H](NC(=O)CCC(F)(F)F)C3CC3)cc2n1)C1CCC(F)(F)CC1 [Example 471, N—((S)-(7-((R)-Cyclopropyl(4,4,4-trifluorobutanamido)methyl)imidazo[1,2-b]pyridazin-2-yl)(4,4-difluorocyclohexyl)methyl)-4-methyloxazole-5-carboxamide] | 6.42 | 5.64
14 | Cc1nc(C)c(C(=O)N[C@H](c2cn3ncc([C@H](NC(=O)CCC(F)(F)F)C4CC4)cc3n2)C2CCC(F)(F)CC2)o1 [Example 472, N—((S)-(7-((R)-Cyclopropyl(4,4,4-trifluorobutanamido)methyl)imidazo[1,2-b]pyridazin-2-yl)(4,4-difluorocyclohexyl)methyl)-2,4-dimethyloxazole-5-carboxamide] | 4.35 | < 4.70
15 | Cc1noc(C(=O)N[C@H](c2cn3ncc([C@H](NC(=O)CCC(F)(F)F)C4CC4)cc3n2)C2CCC(F)(F)CC2)c1C [Example 473, N—((S)-(7-((R)-Cyclopropyl(4,4,4-trifluorobutanamido)methyl)imidazo[1,2-b]pyridazin-2-yl)(4,4-difluorocyclohexyl)methyl)-3,4-dimethylisoxazole-5-carboxamide] | 5.07 | < 4.70
16 | O=C(CCC(F)(F)F)N[C@@H](c1cnn2cc([C@@H](NC(=O)c3conc3C3CCC3)C3CCC(F)(F)CC3)nc2c1)C1CC1 [Example 474, 3-Cyclobutyl-N—((S)-(7-((R)-cyclopropyl(4,4,4-trifluorobutanamido)methyl)imidazo[1,2-b]pyridazin-2-yl)(4,4-difluorocyclohexyl)methyl)isoxazole-4-carboxamide] | 7.39 | 6.89
17 | O=C(CCC(F)(F)F)NC(c1cnn2cc(C(NC(=O)c3ncnn3CC3CC3(F)F)C3CCC(F)(F)CC3)nc2c1)C1CC1 [Example 475, N—((R)-(7-((S)-Cyclopropyl(4,4,4-trifluorobutanamido)methyl)imidazo[1,2-b]pyridazin-2-yl)(4,4-difluorocyclohexyl)methyl)-1-((2,2-difluorocyclopropyl)methyl)-1H-1,2,4-triazole-5-carboxamide] | 6.89 | 6.48
